Test results published in patent US20210261569A1, “FUSED HETEROCYCLIC DERIVATIVES HAVING SELECTIVE BACE1 INHIBITORY ACTIVITY” (Shionogi & Co., Ltd., priority 2018, published 2021).

Tests used:
[1] = target: T1, P-gp (MDR1 expressing LLC-PK1 cells) (Homo sapiens, UniProt P08183); test: P-gp substrate test; format: in vitro ADME; conditions: MDR1 expressing LLC-PK1 cells vs parent LLC-PK1 cells
T1 construct: host or cells: LLC-PK1 (porcine kidney) cells
Description: 1. MDR1 expressing LLC-PK1 cells and its parent cells were routinely cultured in Medium A (Medium 199 (Invitrogen) supplemented with 10% FBS (Invitrogen), gentamycin (0.05 mg/mL, Invitrogen) and hygromycin B (100 μg/mL, Invitrogen)) at 37° C. under 5% CO2/95% 02 gasses. For the transport experiments, these cells were seeded on Transwell (Registered trademark) insert (96-well, pore size: 0.4 μm, Coaster) at a density of 1.4×10^4 cells/insert and added Medium B (Medium 199 supplemented with 10% FBS and gentamycin at 0.05 mg/mL) to the feeder tray. These cells were incubated in a CO2 incubator (5% CO2/95% 02 gasses, 37° C.) and replace apical and basolateral culture medium every 48-72 hr after seeding. These cells were used between 4 and 6 days after seeding. 2. The medium in the culture insert seeded with MDR1 expressing cells or parent cells were removed by aspiration and rinsed by HBSS. The apical side (140 μL) or basolateral side (175 μL) was replaced with transport buffer containing reference substrates and the present invention and then an aliquot (50 μL) of transport buffer in the donor side was collected to estimate initial concentration of reference substrate and the present invention. After incubation for designed time at 37° C., an aliquot (50 μL) of transport buffer in the donor and receiver side were collected. Assay was performed by duplicate or triplicate. 3. Reference substrate and the present invention in the aliquot was quantified by LC/MS/MS.
Permeated amounts across monolayers of MDR1 expressing and parent cells were determined, and permeation coefficients (Pe) were calculated using Excel 2003 from the following equitation:
Pe (cm/sec)=Permeated amount (pmol)/area of cell membrane (cm^2)/initial concentration (nM)/incubation time (sec) Where, permeated amount was calculated from permeation concentration (nM, concentration of the receiver side) of the substance after incubation for the defined time (sec) multiplied by volume. (mL) and area of cell membrane was used 0.1433 (cm2). The efflux ratio was calculated using the following equation:
Efflux Ratio=Basolateral-to-Apical Pe/Apical-to-Basolateral Pe
The net flux was calculated using the following equation:
Net flux=Efflux Ratio in MDR1 expressing cells/Efflux Ratio in parent cells

[2] = target: T2, human ether-a-go-go related gene (hERG) channel (Homo sapiens, UniProt Q12809); test: hERG test (whole cell patch clamp, QPatch); format: cell-based; conditions: CHO cells expressing hERG, tail peak current
T2 construct: expressed in transfected cells; host or cells: CHO cells
T2 sequence (Q12809 whole entry): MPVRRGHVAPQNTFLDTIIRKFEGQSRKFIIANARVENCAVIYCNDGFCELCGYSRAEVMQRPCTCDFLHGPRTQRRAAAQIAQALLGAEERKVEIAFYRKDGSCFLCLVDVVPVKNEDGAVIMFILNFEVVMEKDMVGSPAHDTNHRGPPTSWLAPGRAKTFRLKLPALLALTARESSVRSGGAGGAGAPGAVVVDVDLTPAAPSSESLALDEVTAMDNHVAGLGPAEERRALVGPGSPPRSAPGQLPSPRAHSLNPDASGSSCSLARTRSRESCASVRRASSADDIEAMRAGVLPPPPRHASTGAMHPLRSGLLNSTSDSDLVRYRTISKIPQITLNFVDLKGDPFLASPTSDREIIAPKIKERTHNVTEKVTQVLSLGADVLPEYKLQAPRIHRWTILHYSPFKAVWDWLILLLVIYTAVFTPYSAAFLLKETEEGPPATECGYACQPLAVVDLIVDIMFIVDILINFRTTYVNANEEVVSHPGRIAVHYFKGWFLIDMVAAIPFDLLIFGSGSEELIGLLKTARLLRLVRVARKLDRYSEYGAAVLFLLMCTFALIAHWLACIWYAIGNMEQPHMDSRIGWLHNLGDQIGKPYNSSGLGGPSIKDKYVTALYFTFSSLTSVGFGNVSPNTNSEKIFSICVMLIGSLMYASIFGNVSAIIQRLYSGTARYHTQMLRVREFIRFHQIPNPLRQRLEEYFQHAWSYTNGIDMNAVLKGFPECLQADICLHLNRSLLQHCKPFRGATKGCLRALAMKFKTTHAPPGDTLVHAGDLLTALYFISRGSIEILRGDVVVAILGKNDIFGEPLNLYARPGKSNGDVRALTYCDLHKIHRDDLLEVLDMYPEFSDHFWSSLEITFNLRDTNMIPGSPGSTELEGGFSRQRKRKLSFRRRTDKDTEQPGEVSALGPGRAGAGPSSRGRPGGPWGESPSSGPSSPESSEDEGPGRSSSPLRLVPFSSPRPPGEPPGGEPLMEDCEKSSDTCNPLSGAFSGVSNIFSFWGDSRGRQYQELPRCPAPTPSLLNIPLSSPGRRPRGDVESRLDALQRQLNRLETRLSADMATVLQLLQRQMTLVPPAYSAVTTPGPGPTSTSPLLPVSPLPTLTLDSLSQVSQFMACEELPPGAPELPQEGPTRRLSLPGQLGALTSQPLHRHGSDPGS
Excerpt: For the purpose of assessing risk of an electrocardiogram QT interval prolongation, effects on delayed rectifier K+ current (IKr), which plays an important role in the ventricular repolarization process of the compound of the present invention, was studied using CHO cells expressing human ether-a-go-go related gene (hERG) channel.
A cell was retained at a membrane potential of −80 mV by whole cell patch clamp method using an automated patch clamp system (QPatch; Sophion Bioscience A/S). After application of leak potential at −50 mV, IKr induced by depolarization pulse stimulation at +20 mV for 2 seconds and, further, repolarization pulse stimulation at −50 mV for 2 seconds was recorded.
After the generated current was stabilized, extracellular solution (NaCl: 145 mmol/L, KCl: 4 mmol/L, CaCl2:2 mmol/L MgCl2:1 mmol/L, 1 mmol/L, HEPES (4-(2-hydroxyethyl)-1-piperazineethanesulfonic acid: 10 mmol/L, glucose:10 mmol/L pH=7.4) in which the compound of the present invention have been dissolved at an objective concentration was applied to the cell under the room temperature condition for 10 minutes. From the recording IKr, an absolute value of the tail peak current was measured based on the current value at the resting membrane potential using an analysis software (QPatch assay software; Sophion Bioscience A/S). Further, the % inhibition relative to the tail peak current before application of the compound of the present invention was calculated, and compared with the vehicle-applied group (0.1% dimethyl sulfoxide solution) to assess influence of the compound of the present invention on IKr.

[3] = test system: Abeta 1-42 in cerebrospinal fluid (CSF); test: Pharmacology in the beagle dog: beta-amyloid profile in cerebrospinal fluid; format: in vivo; conditions: single dose 0.63 mg/kg
Description: Test compounds were tested to evaluate the effect on the beta-amyloid profile in cerebrospinal fluid (CSF) of dogs after a single dose, in combination with pharmacokinetic (PK) follow up and limited safety evaluation.
In the case of compounds shown below, two or 4 beagle dogs (1 or 2 male, 1 or 2 female) were dosed with vehicle (1 mL/kg of an aqueous solution of 20% cyclodextrin) and 4 beagle dogs (2 males and 2 females) per dose group were dosed with test compound at the doses indicated in the following Table in an aqueous 20% cyclodextrin solution with a concentration in mg/mL identical to the dose given in mg/kg) on an empty stomach.
CSF was taken in conscious animals directly from the lateral ventricle via a cannula which was screwed in the skull and covered with subcutaneous tissue and skin, before and at 4, 8, 25 and 49 hours after dosing. Eight hours after dosing the animals got access to their regular meal for 30 minutes. Blood was taken for PK follow up (0.5, 1, 2, 4, 8, 25 and 49 hours) and serum samples for biochemistry were taken before and at 8 and 25 h after dosing. The CSF samples were used for measurement of Abeta 1-37, Abeta 1-38, Abeta 1-40 and Abeta 1-42.

T1 sequence (P08183 whole entry): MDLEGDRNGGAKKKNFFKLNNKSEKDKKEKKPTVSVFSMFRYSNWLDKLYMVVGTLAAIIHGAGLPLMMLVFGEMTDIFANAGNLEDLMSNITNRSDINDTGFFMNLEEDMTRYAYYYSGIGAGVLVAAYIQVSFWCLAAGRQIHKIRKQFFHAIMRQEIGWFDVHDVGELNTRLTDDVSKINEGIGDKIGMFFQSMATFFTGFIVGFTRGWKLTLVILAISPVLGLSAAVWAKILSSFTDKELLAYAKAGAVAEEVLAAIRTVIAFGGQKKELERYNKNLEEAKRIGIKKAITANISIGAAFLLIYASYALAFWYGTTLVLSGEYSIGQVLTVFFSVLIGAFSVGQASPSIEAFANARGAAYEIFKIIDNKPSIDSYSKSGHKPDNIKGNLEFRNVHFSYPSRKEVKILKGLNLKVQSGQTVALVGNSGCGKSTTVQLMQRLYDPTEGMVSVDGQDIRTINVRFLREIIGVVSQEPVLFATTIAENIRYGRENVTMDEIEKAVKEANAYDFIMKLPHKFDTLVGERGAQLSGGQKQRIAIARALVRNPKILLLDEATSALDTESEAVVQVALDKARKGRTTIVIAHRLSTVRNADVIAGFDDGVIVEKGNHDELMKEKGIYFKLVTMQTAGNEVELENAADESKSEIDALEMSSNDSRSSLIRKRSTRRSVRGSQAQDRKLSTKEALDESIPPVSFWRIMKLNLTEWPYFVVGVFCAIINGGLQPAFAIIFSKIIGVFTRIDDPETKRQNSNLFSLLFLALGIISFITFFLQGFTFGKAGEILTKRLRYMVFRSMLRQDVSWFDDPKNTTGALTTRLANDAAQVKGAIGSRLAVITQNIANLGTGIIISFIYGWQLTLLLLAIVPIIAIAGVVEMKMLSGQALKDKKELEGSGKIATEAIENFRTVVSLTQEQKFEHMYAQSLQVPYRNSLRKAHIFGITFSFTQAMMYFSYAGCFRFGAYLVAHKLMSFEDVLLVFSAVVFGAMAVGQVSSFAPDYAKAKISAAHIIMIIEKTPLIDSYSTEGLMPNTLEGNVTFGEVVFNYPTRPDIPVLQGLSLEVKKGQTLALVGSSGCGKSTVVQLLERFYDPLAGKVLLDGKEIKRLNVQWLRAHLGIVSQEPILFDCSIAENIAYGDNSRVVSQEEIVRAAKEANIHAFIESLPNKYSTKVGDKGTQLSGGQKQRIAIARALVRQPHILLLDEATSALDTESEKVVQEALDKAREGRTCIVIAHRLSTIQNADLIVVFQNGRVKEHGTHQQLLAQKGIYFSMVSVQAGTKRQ

| P-gp ER ratio [1] | SMILES | hERG inhibition (%) at 3 μM [2] [%] | % change in Abeta 1-42 from own baseline ([3]; 8 h) [%] | % change in Abeta 1-42 from own baseline ([3]; 24 h or 25 h) [%] |
| --- | --- | --- | --- | --- |
| 3.6 | C[C@@H]1OC[C@H]2[C@@H]1OC(N)=N[C@]2(CF)c1cc(NC(=O)c2cnc(OCF)cn2)ccc1F [Compound I-082] | 6.7 | −58 | −41 |
| 5.2 | NC1=N[C@](CF)(c2cc(NC(=O)c3cnc(OCF)cn3)ccc2F)[C@H]2[C@H](CC(F)F)OC[C@H]2O1 [Compound I-116] | 33.9 | – | – |
